The structures appear in SMILES notation.

A word on the Ki: it is a dissociation constant, usually derived from enzyme kinetics or from competition with a known ligand. What is called IC50 is the point on the concentration scale where inhibition reaches its midpoint. The term GI50 denotes the concentration giving 50% growth inhibition.

For assay [1], the target named is T1, Xaa-Pro dipeptidase (Homo sapiens, UniProt P12955).
T1 sequence (P12955 whole entry): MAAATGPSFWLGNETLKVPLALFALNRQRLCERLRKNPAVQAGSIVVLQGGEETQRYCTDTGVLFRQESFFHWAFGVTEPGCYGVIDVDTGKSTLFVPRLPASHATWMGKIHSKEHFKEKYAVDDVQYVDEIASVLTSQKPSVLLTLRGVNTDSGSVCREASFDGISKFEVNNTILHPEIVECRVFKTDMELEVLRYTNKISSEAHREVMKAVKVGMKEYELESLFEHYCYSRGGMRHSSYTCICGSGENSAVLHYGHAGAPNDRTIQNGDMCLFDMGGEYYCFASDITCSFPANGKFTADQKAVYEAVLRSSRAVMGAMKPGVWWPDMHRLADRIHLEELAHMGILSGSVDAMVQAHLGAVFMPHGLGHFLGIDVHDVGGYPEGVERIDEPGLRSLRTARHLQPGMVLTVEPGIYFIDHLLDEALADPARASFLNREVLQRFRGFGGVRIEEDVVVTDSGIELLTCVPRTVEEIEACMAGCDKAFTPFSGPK
The assay can be described thus: Competitive inhibition of prolidase (unknown origin) in erythrocytes assessed as inhibition constant.

For assay [2], the target named is T1, Xaa-Pro dipeptidase. The assay can be described thus: Inhibition of prolidase (unknown origin).
A further assay relates to MDA-MB-231. The assay can be described thus: Cytotoxicity against human MDA-MB-231 cells assessed as reduction in cell viability measured for 72 hrs by MTT assay. The settings on record: MDA-MB-231, 72 h. On the technique in general: Formazan colour is commonly taken as a measure of viable cells.
For the next assay, the system named is MCF7. The assay can be described thus: Cytotoxicity against human MCF7 cells assessed as reduction in cell viability measured for 72 hrs by MTT assay. The settings on record: MCF7, 72 h.
In another assay the test system is SK-MEL-5. The assay can be described thus: cells. The note with it: Homo sapiens, SK-MEL-5, 48 h.

Description for SK-MEL-5: Growth inhibition of human SK-MEL-5 cells after 48 hrs by sulforhodamine B assay

For `NC(=O)Nc1ccc(O)cc1`, the Ki on Xaa-Pro dipeptidase [1] stood at 9.73 µM.

The compound `COc1cccc2c1C(=O)c1c(O)c3c(c(O)c1C2=O)C[C@@](O)(C(=O)CO)C[C@@H]3O[C@H]1C[C@H](N)[C@H](O)[C@H](C)O1` [DOXORUBICIN] returned an IC50 against Xaa-Pro dipeptidase [2] of 10 µM.

On to `O=NN(CCCl)C(=O)N1CCC[C@H]1C(=O)O`, for which the IC50 came to 88 µM in the assay with MDA-MB-231 and 102 µM in the assay on MCF7.

At Xaa-Pro dipeptidase [2], `COc1cccc2c1C(=O)c1c(O)c3c(c(O)c1C2=O)C[C@@](O)(C(C)=O)C[C@@H]3O[C@H]1C[C@H](N)[C@H](O)[C@H](C)O1` [DAUNORUBICIN] returned an IC50 of 0.3 µM.

Take `N[C@@H](Cc1ccc(N(CCCl)CCCl)cc1)C(=O)O`: the GI50 in the assay on SK-MEL-5 came out at 74.8 µM.

The values above are taken from ChEMBL document CHEMBL5576103, “Targeting prolidase. A survey of the literature data to depict a structure-activity relationship frame and to address future studies for drug development” (Bioorg Med Chem, 2024).
